Data on seven compounds can be found in PMC4405350, “From Broad-Spectrum Biocides to Quorum Sensing Disruptors and Mussel Repellents: Antifouling Profile of Alkyl Triphenylphosphonium Salts” (PLoS ONE, 2015).

In data set [1] the test system is Mytilus galloprovincialis. Briefly: Mussel foot retraction assay. In kind it is in vivo. The conditions noted are these: for Mussels showing foot retraction: 200 μM, highest test concentration; for EC50: Mytilus galloprovincialis, dripped on the foot, read-out: Concentration required to cause foot repulsion in 50% of mussels. On the procedure:
The mussel Mytilus galloprovincialis was used as target organism. Individuals of 4.0–4.5 cm shell length were collected at intertidal rocky shore of the outer Ría de Vigo (NW Spain). Animals were kept in running seawater aquarium tanks with open-flow design for few days and fed daily by pulses with a mixture of the microalgae (Tahitian Isochrysis aff. galbana) and sediment from the seafloor below the mussel rafts.
Mussel foot retracting assay was conducted following the method reported by Hayashi and Miki. Briefly, subsamples of individuals from the maintenance tanks were transferred to containers filled with 1-μm FSW. After 30 min, the posterior adductor muscle (PAM) was cut to open both animal´s valves as shown in S1A Fig, and byssus filaments were removed from their insertion with the soft tissues. Animals were disposed individually on flexible innocuous plasticine basis as a holder still for 15 min in FSW. The latter disposition avoided animal´s manipulation before and after each test solution was dripped directly on the foot of immobilized animals. FSW was removed and animals exposed their internal cavities in dry conditions for the dripping actions but maintaining a humidity layer over soft tissues.
Initially two different controls (negative and positive) were considered. As negative control, 2.5 μl of DMSO in 0.2-μm FSW was used. […] After the negative control test, the animals were disposed back in 1-μm FSW for 15 min. With regard to the positive control, 1000 ppm of CuSO4 was used. For the latter case, only animals that did react to such positive control were used. After this second control, animals were disposed back in 1-μm FSW, this time for 25 min in order to remove completely any rest of copper. All animals considered for the experiment have accomplished the two controls satisfactorily.
Different concentrations (6.25, 12.5, 25, 50, 100 and 200 μM) of two test compounds, 3 and 16 were used. Stocks of 40 mM for the two compounds under investigation were prepared in DMSO. Posterior dilution actions to get the distinct concentrations desired were prepared with 0.2-μm FSW. Concentrations were tested in ascending order from 6.25 to 200 μM. Animals were kept in 0.2-μm FSW for 15 min at each time interval between sampling with the aim to wash the internal soft tissues. After each removal of seawater, animals were ready to use again.
Eight series of ten animals each were considered for retracting muscle foot analysis and each test compound. Each potential foot-reacting substance was individually dripped on the foot of the mussels (S1B Fig) and the animal’s reactions were noted. […]

For data set [2], the system named is V. harveyi WT and reporter strains. The data set can be described thus: V. harveyi growth inhibition (OD600). The format is cell-based. To be noted: Vibrio harveyi, 18 h, read-out: IC50 Growth. As to the method:
V. harveyi BB120 (wild type strain), BB170 (luxN::Tn5kan), BB886 (luxPQ::Tn5kan) and BB721 (luxO::Tn5lacZ) were acquired from ATCC. To screen the ability of the compounds to interfere with QS, the test products were serially diluted in 100 μl of Autoinducer Bioassay (AB) medium using white, clear-bottom 96-well microtiter plates (Costar 3610) as assay platform. Aerobic bacterial cultures were incubated overnight (30 °C) and diluted 1:50. One-hundred μl of the diluted cultures were dispensed inside each well in the microtiter plate. That gave a starting cell density of 1–2 x 10^7 cfu ml^-1. The plates were covered with a sterile sealing film. Luminescence and OD600 were monitored every 15 min over 18 h with a multimode plate reader (Perkin-Elmer EnSpire) in order to correlate the effects of the products on both the growth and bioluminescence kinetics.
Compounds 3–5 and 7 were evaluated in V. harveyi WT and three mutant strains: BB886 (luxPQ::Tn5Kan), unable to detect AI-2; BB170 (luxN::Tn5Kan), unable to detect HAI-1; and BB721 (luxO::Tn5lacZ), a LuxO null mutant that produces maximal luminescence per cell constitutively. In order to take into account the cumulative effects of the compounds, bioluminescence and growth were measured simultaneously every 15 min over 18 h (Fig 7). Accordingly, IC50 values for bacterial luminescence and growth were obtained by integration of the areas under the curves for each tested dose (Table 3). For clarity of the graphs, error bars has been omitted in Fig 7 and only the mean curves are shown.

Details of data set [3]: method as in earlier work. The conditions noted are these: cited from earlier work.
A short description of the next data set: in vivo. The conditions noted are these: in vivo. As to the method:
All the biological assays were run by triplicate. […] For the active products, serial dilutions were performed to calculate the half-maximal inhibitory concentrations (IC50) or the minimal inhibitory concentrations (MIC). Unless otherwise stated, the test concentrations were 100, 50, 25, 10, 5, 2.5, 1, 0.5 and 0.1 μM. Dose-response curves were adjusted with GraphPad Prism 5 software using a four-parameter non-linear regression model.
Artemia salina cysts (INVE Aquaculture, Ghent, Belgium) were hatched in brackish water (30 ‰ salinity) at 28 °C with aeration and under constant light. Newly hatched instar I nauplii were harvested for bioassays. Tests were conducted in 96-well plates (15±5 nauplii per well, test volume = 200 μl). The number of dead and alive individuals was recorded after 24 h of incubation at 28 °C and 24-hour photoperiod.

As for `C/C=C/C[P+](c1ccccc1)(c1ccccc1)c1ccccc1` [Compound 3], in data set [1], the “Mussels showing foot retraction” value is recorded as 94–95% and the EC50 amounted to 47 µM. Besides, the IC50 in data set [2] is > 500 µM.

Consider `CCCCCCCCCCCCCCCC[P+](c1ccccc1)(c1ccccc1)c1ccccc1` [Compound 16], for which the cmc threshold result in data set [3] was “around 100 μM”. Besides, in data set [1], the “Mussels showing foot retraction” value is reported as 94–95% and the EC50 was 34 µM.

For the compound `CCCCC[P+](c1ccccc1)(c1ccccc1)c1ccccc1` [Compound 7], the IC50 in data set [2] was > 500 µM.

Turning to `BrCCCC[P+](c1ccccc1)(c1ccccc1)c1ccccc1` [Compound 4], the IC50 in data set [2] is > 500 µM.

Consider `CCCCN[P+](c1ccccc1)(c1ccccc1)c1ccccc1` [Compound 5], for which the IC50 in data set [2] was > 500 µM.

`CCCCCCCCCCCCCCCCCC[P+](c1ccccc1)(c1ccccc1)c1ccccc1` [Compound 17]: the LC50 at 24 h in “in vivo” was < 0.5 µM.

In the case of `CCCCCCCCCCCCCCCCCCC[P+](c1ccccc1)(c1ccccc1)c1ccccc1` [Compound 18], in the data set “in vivo”, the LC50 at 24 h is < 0.5 µM.
